Source: patent US20120040939A1, “MEDICINAL USE OF 5-BENZYLAMINOSALICYLIC ACID DERIVATIVE OR ITS SALT” (priority 2009, published 2012)

Assays:
Type in all cases: in vivo
Male ICR mice [1] = assay: Locomotor activity using open field test; settings: 1.25-50 mg/kg oral, twice daily; 1 hour before the test
Experimental: The locomotor activity using open field test measured to know influence of drug treatment on activity in animals. Male ICR mice weighing 20-23 g of body weight were used throughout the study.
Experimental animals were kept in an animal breeding room with a […] cycle and accommodated by 8 mice per cage supplied freely with water and feeding. The mice consisted of 8 animals per group were randomly allocated to the treatment groups.
(§1) Compound 2 was suspended in 10% lutrol solution and all the suspended solutions were administered orally to the mice twice daily at a volume of 5 ml/kg. The control group was treated only with 10% lutrol solution in the same manner. All the treatment of drugs or vehicle to the animals were given 1 hour before the test (n=8/group).
The open field was consisted of square arena (58 cm×58 cm) surrounded by a 30 cm height wall. […] At the start of each trial, a mouse was placed in a corner of the field and was allowed to freely move the arena and the moving trajectory for 5 min was measured. The behavior of animals was recorded and analyzed using a videotracking software (Etho Vision 3.0, Noldus Information Technology, Leesburg, Va.) attached to the ceiling above the middle of the arena.
The collected data were analyzed by one-way ANOVA followed by Tukey's HSD (Honestly Significant Difference) post hoc comparison.

Sprague-Dawley (SD) rats = assay: Water immersion restraint stress (WIRS) gastric damage model; settings: 30 mg/kg, given 1 hour before 10 hours WIRS
Experimental: The Sprague-Dawley (SD) rats weighing 200 g of body weight were deprived of food for over 24 hours and then were given with the experimental compound. After 1 hour, the rats were placed in a stress cage and immersed into water at 24° C. for 10 hours to induce WIRS
The SD rats weighing 200 g of body weight were deprived of food for 24 h and then were given with 30 mg/kg of compound 2. After 1 hour, the rats were placed in a stress cage and immersed into water for 10 hours. After WIRS for 10 hours, the rats were sacrificed under anesthesia with ether. Each stomach was isolated, soaked and fixed in 10 ml of 2% formalin solution for 10 minutes, and then opened along the greater curvature of the stomach. After spreading the stomach, stress-induced hemorrhagic lesions were examined macroscopically, and the results were shown in FIG. 2.

male C57BL/6 mice [2] = assay: Stress-induced anxiety (restraint stress), elevated plus maze (EPM); settings: EPM 5 minutes
Experimental: To evaluate the effect of compound 2 on stress-induced anxiety, we used a restraint stress animal model. Anxiety was evoked by exposing stress that a mice was restrained to be immovable in a narrow space, and whether the compound could show anxiolytic effect after administration the animals.
When experimental animals are exposed to stress, various physiological changes occur, which can be measured through several behavioral tests. In this study, anxiety of experimental animals was evaluated by an elevated plus maze (EPM). EPM apparatus consisted of two open arms, and two closed arms which are horizontally crossed. It is designed that the cross path is located 60 cm above the floor for the animals to feel anxiety. […]
At the day of experiment, animals exposed to restraint stress after animals were acclimatized to testing room over 60 minutes, and then were orally administered with the compound. One hour after administration the oral administration of compound 2 or lutrol, experimental animals were placed at the center of EPM and the animal behaviors were recorded during total 5 minutes using a camera mounted on the ceiling and a computer program (etho vision 3.0 (Noldus Information Technology)). The collected data were expressed as % time spent in open arms and the statistical analysis was done using one-way ANOVA followed by LSD (Least significant difference) post hoc comparisons.

Male ICR mice [3] = assay: Tail suspension test (TST), antidepressant effect; settings: twice daily, final 4 min of 6 min test, 1 h after treatment
Experimental: The effectiveness of the compound was evaluated using a tail-suspension test as in vivo method for depression. In this test immobility time of animals typically for 5-10 minutes is recorded using a manual or an automated device.
Male ICR mice weighing 28-30 g of body weight were used throughout the study. Experimental animals were kept in an animal breeding room with a 12 h dark/12 h light cycle and accommodated by 8 mice per cage supplied freely with water and feeding. The mice consisted of 8 animals per group were randomly allocated to the treatment groups.
Compound 2 was suspended in 10% lutrol solution and the all suspended solutions were administered orally to the mice twice daily at a volume of 4 ml/kg. The control group was treated only with 10% lutrol solution in the same manner. All the treatment of drugs or vehicle to the animals were given 1 hour before the test (n=8/group).
This test was evaluated according to the method described in a previous publication [Psycopharmacology 85, 367-370, Steru et al. (1985)]. At the day of experiment, the mice were acclimatized in the testing room over 60 minutes and given with the compound, and then the test was conducted. After 1 h after drug treatment, the mice were taped with experimental adhesive tape, at approximately 1 cm from the tip of the tail. The mice were individually suspended on an experimental shelf about 58 cm above a table top by attaching the adhesive tape at the tip of the tail to the experimental shelf. And after that, total immobility time was measured for 6 min in the absence of noise. The total immobility time was measured during the final 4 min of a 6 min test session and the data were expressed as mean and analyzed by one-way ANOVA followed by Tukey's HSD (Honestly Significant Difference) post hoc comparison.

male C57BL/6 mice [4] = assay: Forced swimming test, antidepressant effect; settings: final 4 min of 6-min session
Experimental: Forced swimming test is used to select compounds with therapeutic efficacy for depression. […] The immobility time is counted whenever the animal remained floating passively in the water without struggling except minimal movement to protrude its head above the water surface.
Nine-week-old male C57BL/6 mice weighing 20-23 g of body weight were used through this study. Experimental animals were kept in an animal breeding room with a 12 h dark/12 h light cycle and accommodated by 8 mice per cage supplied freely with water and feeding. The mice consisted of 8 animals per group were randomly allocated to the treatment groups.
as §1
At the day of the experiment, the mice were acclimatized in the testing room over 60 minutes, orally given with the compound 2 or vehicle control, and received the forced swimming test. For the forced swimming test, a mouse was individually forced to swim inside an open glass cylindrical bath with height of 26 cm and diameter of 14 cm filled with water at 24±1° C. up to 16 cm high from the bottom so that the mouse tail could not reach the bottom. One hour after the mouse were orally given compound 2 and control vehicle, then the mice were exposed to forced swimming for 6 min in the water bath and their movement was recorded using a video camera system. The total duration of immobility was measured as a mean during the final 4 min of a 6-min test session and the data were statistically analyzed with one-way ANOVA followed by Tukey's HSD (Honestly Significant Difference) post hoc comparison.

male C57BL/6 mice [5] = assay: Repeated restraint stress test with forced swim test as index for depression; settings: for decrease of immobility time compared with stressed control group (control 2): forced swim test; for decrease of immobility time compared with unstressed group (control 1): no stress, forced swimming test
Experimental: To test the efficacy of compounds on a stress-induced depression a restraint stress animal model was used. After evoking depression symptoms in a mouse corresponding to a human depression by exposing a stressed condition that it was placed in a narrow space to be unable to move, whether the compounds have any anti-depression effects were tested after treatment to this animal.
Nine-week-old male C57BL/6 mice weighing 20-23 g of body weight were used through this study. Experimental animals were kept in an animal breeding room with a 12 h dark/12 h light cycle and accommodated by 5-6 mice per cage supplied freely with water and feeding. The mice consisted of 11 animals per group were randomly allocated to the treatment groups.
Compound 2 was suspended in 10% lutrol solution and all the suspended solutions were administered orally to the mice twice daily at a volume of 5 ml/kg. The control group was treated only with 10% lutrol solution in the same manner. All the treatment of drugs or vehicle to the animals were given 1 hour before the test (n=11/group).
Animals were subjected to restraint-stress one hour after compound 2 or 10% lutrol was administered orally. Mice were exposed to restraint stress everyday 2 hr for 14 days and received a forced swim test such as <Example 4> as an index for depression.

[6] = 2.5 mg/kg oral BID + restraint stress 2 hr daily for 14 days
[7] = 5 mg/kg oral BID + restraint stress 2 hr daily for 14 days

O=C(O)c1cc(NCCc2ccc(C(F)(F)F)cc2)ccc1O [compound 2, 2-hydroxy-5-[2-(4-trifluoromethyl-phenyl)-ethylamino]-benzoic acid]
locomotor activity (open field, 5 min) (Male ICR mice [1]): not different among groups
WIRS-induced gastric lesion index (Sprague-Dawley (SD) rats): definitely reduced
% time spent in open arm, increase compared with the stressed group (control 2) (male C57BL/6 mice [2]; [6]): 24%
% time spent in open arm, increase compared with the stressed group (control 2) (male C57BL/6 mice [2]; [7]): 23%
decrease of total immobility time compared with the control group (Male ICR mice [3]; 1.25 mg/kg oral): 46%
decrease of total immobility time compared with the control group (Male ICR mice [3]; 2.5 mg/kg oral): 43%
decrease of total immobility time compared with the control group (Male ICR mice [3]; 5 mg/kg oral): 42%
decrease of total immobility time compared with the control group (Male ICR mice [3]; 12.5 mg/kg oral): 38%
decrease of total immobility time compared with the control group (Male ICR mice [3]; 25 mg/kg oral): 54%
decrease of total immobility time compared with the control group (Male ICR mice [3]; 50 mg/kg oral): 57%
decrease of immobility time compared with the vehicle control group (male C57BL/6 mice [4]; 1.25 mg/kg oral BID): 31%
decrease of immobility time compared with the vehicle control group (male C57BL/6 mice [4]; 2.5 mg/kg oral BID): 34%
decrease of immobility time compared with the vehicle control group (male C57BL/6 mice [4]; 5 mg/kg oral BID): 30%
decrease of immobility time compared with the vehicle control group (male C57BL/6 mice [4]; 12.5 mg/kg oral BID): 34%
decrease of immobility time compared with stressed control group (control 2) (male C57BL/6 mice [5]; [6]): 32%
decrease of immobility time compared with unstressed group (control 1) (male C57BL/6 mice [5]; 2.5 mg/kg oral BID for 2 weeks): 21%
decrease of immobility time compared with stressed control group (control 2) (male C57BL/6 mice [5]; [7]): 39%
decrease of immobility time compared with unstressed group (control 1) (male C57BL/6 mice [5]; 5 mg/kg oral BID for 2 weeks): 26%
